Reference: ChEMBL document CHEMBL3885881, “DrugMatrix”

Species on record: Rattus norvegicus
Assay: DrugMatrix - Regimen: Daily Repeat
Type: toxicity, organism-based, Sprague-Dawley
Parameters: regimen Daily Repeat, gender Male, age 6-8 weeks
Conditions: in vivo, po, route oral GAVAGE, […]; for ABSOLUTE BASOPHIL / ABSOLUTE EOSINOPHIL / ABSOLUTE LYMPHOCYTE / ABSOLUTE MONOCYTE / ABSOLUTE SEGMENTED NEUTROPHIL / BASOPHIL / EOSINOPHIL / ERYTHROCYTE COUNT / HEMATOCRIT / HEMOGLOBIN / LEUKOCYTE COUNT / LYMPHOCYTE / MEAN CORPUSCULAR HEMOGLOBIN / MEAN CORPUSCULAR HEMOGLOBIN CONCENTRATION / MEAN CORPUSCULAR VOLUME / MONOCYTE / NEUTROPHIL / NUCLEATED RED BLOOD CELLS / PLATELET COUNT: tissue Blood; for ALANINE AMINOTRANSFERASE / ALBUMIN / ALKALINE PHOSPHATASE / ASPARTATE AMINOTRANSFERASE / BLOOD UREA NITROGEN / CARBON DIOXIDE / CHLORIDE / CHOLESTEROL / CREATINE PHOSPHOKINASE / CREATININE / GLUCOSE / LACTATE DEHYDROGENASE / LIPASE / PHOSPHORUS / POTASSIUM / SODIUM / TOTAL BILIRUBIN / TOTAL PROTEIN / URIC ACID: tissue Plasma
[1] = 10 mg/kg, 72 h, dose level Low, time 3 day
[2] = 10 mg/kg, 120 h, dose level Low, time 5 day
[3] = 25 mg/kg, 72 h, dose level High, time 3 day
[4] = 25 mg/kg, 120 h, dose level High, time 5 day

Sc1ncnc2nc[nH]c12 [MERCAPTOPURINE ANHYDROUS]
ABSOLUTE BASOPHIL [1]: 0 CELLS/uL
ABSOLUTE EOSINOPHIL [1]: 96.67 CELLS/uL
ABSOLUTE LYMPHOCYTE [1]: 10655 CELLS/uL
ABSOLUTE MONOCYTE [1]: 48.33 CELLS/uL
ABSOLUTE SEGMENTED NEUTROPHIL [1]: 1066.67 CELLS/uL
BASOPHIL [1]: 0%
EOSINOPHIL [1]: 0.67%
ERYTHROCYTE COUNT [1]: 5.09 x10E6/uL
HEMATOCRIT [1]: 31.73%
HEMOGLOBIN [1]: 12.87 G/DL
LEUKOCYTE COUNT [1]: 11.87 x10E3/uL
LYMPHOCYTE [1]: 90.33%
MEAN CORPUSCULAR HEMOGLOBIN [1]: 25.3 pg
MEAN CORPUSCULAR HEMOGLOBIN CONCENTRATION [1]: 40.6 G/DL
MEAN CORPUSCULAR VOLUME [1]: 62.4 fL
MONOCYTE [1]: 0.33%
NEUTROPHIL [1]: 8.67%
NUCLEATED RED BLOOD CELLS [1]: 0 /100WBC
PLATELET COUNT [1]: 1148.67 x10E3/uL
ALANINE AMINOTRANSFERASE [1]: 66.33 u/L
ALBUMIN [1]: 3.9 G/DL
ALKALINE PHOSPHATASE [1]: 364.67 u/L
ASPARTATE AMINOTRANSFERASE [1]: 83 u/L
BLOOD UREA NITROGEN [1]: 13 mg/dL
CARBON DIOXIDE [1]: 30.33 mmol/L
CHLORIDE [1]: 99 MEQ/L
CHOLESTEROL [1]: 73.67 mg/dL
CREATINE PHOSPHOKINASE [1]: 175.33 u/L
CREATININE [1]: 0.15 mg/dL
GLUCOSE [1]: 164.33 mg/dL
LACTATE DEHYDROGENASE [1]: 112.33 u/L
LIPASE [1]: 11.33 u/L
PHOSPHORUS [1]: 11.03 mg/dL
POTASSIUM [1]: 6.32 MEQ/L
SODIUM [1]: 142.6 MEQ/L
TOTAL BILIRUBIN [1]: 0.2 mg/dL
TOTAL PROTEIN [1]: 5.6 G/DL
URIC ACID [1]: 1.4 mg/dL
ABSOLUTE BASOPHIL [2]: 0 CELLS/uL
ABSOLUTE EOSINOPHIL [2]: 128 CELLS/uL
ABSOLUTE LYMPHOCYTE [2]: 12203 CELLS/uL
ABSOLUTE MONOCYTE [2]: 203 CELLS/uL
ABSOLUTE SEGMENTED NEUTROPHIL [2]: 1366 CELLS/uL
BASOPHIL [2]: 0%
EOSINOPHIL [2]: 0.67%
ERYTHROCYTE COUNT [2]: 5.76 x10E6/uL
HEMATOCRIT [2]: 36.7%
HEMOGLOBIN [2]: 14.3 G/DL
LEUKOCYTE COUNT [2]: 13.9 x10E3/uL
LYMPHOCYTE [2]: 88.67%
MEAN CORPUSCULAR HEMOGLOBIN [2]: 24.83 pg
MEAN CORPUSCULAR HEMOGLOBIN CONCENTRATION [2]: 38.97 G/DL
MEAN CORPUSCULAR VOLUME [2]: 63.73 fL
MONOCYTE [2]: 1.33%
NEUTROPHIL [2]: 9.33%
NUCLEATED RED BLOOD CELLS [2]: 0 /100WBC
PLATELET COUNT [2]: 1127 x10E3/uL
ALANINE AMINOTRANSFERASE [2]: 61 u/L
ALBUMIN [2]: 4.33 G/DL
ALKALINE PHOSPHATASE [2]: 384.33 u/L
ASPARTATE AMINOTRANSFERASE [2]: 75 u/L
BLOOD UREA NITROGEN [2]: 15 mg/dL
CARBON DIOXIDE [2]: 29.33 mmol/L
CHLORIDE [2]: 100.33 MEQ/L
CHOLESTEROL [2]: 73.67 mg/dL
CREATINE PHOSPHOKINASE [2]: 274.33 u/L
CREATININE [2]: 0.22 mg/dL
GLUCOSE [2]: 153.67 mg/dL
LACTATE DEHYDROGENASE [2]: 111 u/L
LIPASE [2]: 12.67 u/L
PHOSPHORUS [2]: 10.1 mg/dL
POTASSIUM [2]: 6.41 MEQ/L
SODIUM [2]: 142.27 MEQ/L
TOTAL BILIRUBIN [2]: 0.17 mg/dL
TOTAL PROTEIN [2]: 5.97 G/DL
URIC ACID [2]: 1.13 mg/dL
ABSOLUTE BASOPHIL [3]: 0 CELLS/uL
ABSOLUTE EOSINOPHIL [3]: 0 CELLS/uL
ABSOLUTE LYMPHOCYTE [3]: 6679.67 CELLS/uL
ABSOLUTE MONOCYTE [3]: 205.33 CELLS/uL
ABSOLUTE SEGMENTED NEUTROPHIL [3]: 481.67 CELLS/uL
BASOPHIL [3]: 0%
EOSINOPHIL [3]: 0%
ERYTHROCYTE COUNT [3]: 6.41 x10E6/uL
HEMATOCRIT [3]: 40.73%
HEMOGLOBIN [3]: 15.47 G/DL
LEUKOCYTE COUNT [3]: 7.37 x10E3/uL
LYMPHOCYTE [3]: 91%
MEAN CORPUSCULAR HEMOGLOBIN [3]: 24.1 pg
MEAN CORPUSCULAR HEMOGLOBIN CONCENTRATION [3]: 38 G/DL
MEAN CORPUSCULAR VOLUME [3]: 63.4 fL
MONOCYTE [3]: 2.67%
NEUTROPHIL [3]: 6.33%
NUCLEATED RED BLOOD CELLS [3]: 0.33 /100WBC
PLATELET COUNT [3]: 972 x10E3/uL
ALANINE AMINOTRANSFERASE [3]: 61.67 u/L
ALBUMIN [3]: 4.17 G/DL
ALKALINE PHOSPHATASE [3]: 420.33 u/L
ASPARTATE AMINOTRANSFERASE [3]: 105.67 u/L
BLOOD UREA NITROGEN [3]: 12 mg/dL
CARBON DIOXIDE [3]: 28 mmol/L
CHLORIDE [3]: 99.33 MEQ/L
CHOLESTEROL [3]: 77.33 mg/dL
CREATINE PHOSPHOKINASE [3]: 602.33 u/L
CREATININE [3]: 0.16 mg/dL
GLUCOSE [3]: 163 mg/dL
LACTATE DEHYDROGENASE [3]: 320 u/L
LIPASE [3]: 13 u/L
PHOSPHORUS [3]: 11.97 mg/dL
POTASSIUM [3]: 6.85 MEQ/L
SODIUM [3]: 141.03 MEQ/L
TOTAL BILIRUBIN [3]: 0.2 mg/dL
TOTAL PROTEIN [3]: 5.8 G/DL
URIC ACID [3]: 1.57 mg/dL
ABSOLUTE BASOPHIL [4]: 0 CELLS/uL
ABSOLUTE EOSINOPHIL [4]: 80.67 CELLS/uL
ABSOLUTE LYMPHOCYTE [4]: 12020.67 CELLS/uL
ABSOLUTE MONOCYTE [4]: 204.67 CELLS/uL
ABSOLUTE SEGMENTED NEUTROPHIL [4]: 927.33 CELLS/uL
BASOPHIL [4]: 0%
EOSINOPHIL [4]: 0.67%
ERYTHROCYTE COUNT [4]: 5.62 x10E6/uL
HEMATOCRIT [4]: 34.93%
HEMOGLOBIN [4]: 13.6 G/DL
LEUKOCYTE COUNT [4]: 13.23 x10E3/uL
LYMPHOCYTE [4]: 91%
MEAN CORPUSCULAR HEMOGLOBIN [4]: 24.33 pg
MEAN CORPUSCULAR HEMOGLOBIN CONCENTRATION [4]: 39 G/DL
MEAN CORPUSCULAR VOLUME [4]: 62.3 fL
MONOCYTE [4]: 1.33%
NEUTROPHIL [4]: 7%
NUCLEATED RED BLOOD CELLS [4]: 0 /100WBC
PLATELET COUNT [4]: 1431.67 x10E3/uL
ALANINE AMINOTRANSFERASE [4]: 58 u/L
ALBUMIN [4]: 4.4 G/DL
ALKALINE PHOSPHATASE [4]: 341 u/L
ASPARTATE AMINOTRANSFERASE [4]: 91.33 u/L
BLOOD UREA NITROGEN [4]: 10.67 mg/dL
CARBON DIOXIDE [4]: 25 mmol/L
CHLORIDE [4]: 100.33 MEQ/L
CHOLESTEROL [4]: 73 mg/dL
CREATINE PHOSPHOKINASE [4]: 601.67 u/L
CREATININE [4]: 0.13 mg/dL
GLUCOSE [4]: 164 mg/dL
LACTATE DEHYDROGENASE [4]: 169.67 u/L
LIPASE [4]: 12.33 u/L
PHOSPHORUS [4]: 11.07 mg/dL
POTASSIUM [4]: 7.18 MEQ/L
SODIUM [4]: 142.8 MEQ/L
TOTAL BILIRUBIN [4]: 0.17 mg/dL
TOTAL PROTEIN [4]: 6.07 G/DL
URIC ACID [4]: 1.5 mg/dL
